Strand notation (5' to 3'): a small letter for the sugar, then the base; units joined by * are phosphorothioate-linked, units joined directly phosphodiester-linked; [ ] holds rarer units or linkages, { } end groups; capitals alone tell only the bases. e = 2'-O-(2-methoxyethyl) (MOE); [5mC] = 5-methylcytosine; d = 2'-deoxy (DNA)
Tests used:
[1] = test system: human PKK mRNA; assay: Dose-dependent antisense inhibition of human PKK in HepaRG cells, 0.19-5.00 uM (Example 5); format: cell-based; conditions: for percent inhibition of PKK mRNA, 0.19 μM: 0.19 μM antisense oligonucleotide; for percent inhibition of PKK mRNA, 0.56 μM: 0.56 μM antisense oligonucleotide; for percent inhibition of PKK mRNA, 1.67 μM: 1.67 μM antisense oligonucleotide; for percent inhibition of PKK mRNA, 5.00 μM: 5.00 μM antisense oligonucleotide
Summary of the method: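 PKK mRNA knockdown was measured by real-time PCR (primer probe set RTS3454) about 16 h after electroporating 20,000 HepaRG cells per well with oligonucleotide at four doses from 0.19 to 5.00 μM. Levels were adjusted to RIBOGREEN-measured total RNA, and IC50 values were calculated.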

[2] = test system: human PKK mRNA; assay: Antisense inhibition of human PKK mRNA in HepaRG cells, 5,000 nM (Example 2); format: cell-based
Summary of the method: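 qRT-PCR (RTS3454) read-out, RIBOGREEN-normalized; % inhibition vs untreated cells. HepaRG, 20,000 cells/well, electroporation, 5,000 nM ASO, ~24 h.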

[3] = HepaRG cells, electroporation, approximately 16 hours, Table 40
[4] = Table 9 experiment, HepaRG cells, 20,000 cells per well, electroporation with 5,000 nM antisense oligonucleotide, approx. 24 hours, PKK mRNA by RT-PCR (RTS3454), relative to untreated control cells
[5] = Table 10 experiment, HepaRG cells, 20,000 cells per well, electroporation with 5,000 nM antisense oligonucleotide, approx. 24 hours, PKK mRNA by RT-PCR (RTS3454), relative to untreated control cells
[6] = HepaRG cells, electroporation, approximately 16 hours, Table 37
[7] = 4 point dose response, HepaRG cells, Table 37
[8] = HepaRG cells, electroporation with 5,000 nM antisense oligonucleotide, approximately 24 hours, PKK mRNA by RT-PCR (RTS3454), relative to untreated control cells, Table 6 experiment
[9] = Table 34, HepaRG, electroporation, ~16 h
[10] = HepaRG cells, electroporation, approximately 16 hours, Table 38
[11] = HepaRG cells, electroporation, approximately 16 hours, Table 35

Row | Substance | % inhibition [2, 4] [%] | % inhibition [2, 5] [%] | percent inhibition of PKK at 0.19 μM [1, 6] [%] | percent inhibition of PKK at 0.56 μM [1, 6] [%] | percent inhibition of PKK at 1.67 μM [1, 6] [%] | percent inhibition of PKK at 5.00 μM [1, 6] [%] | IC50 [1, 7] [nM] | % inhibition [2, 8] [%] | percent inhibition of PKK mRNA, 0.19 μM ([1]; HepaRG cells) [%] | percent inhibition of PKK mRNA, 0.56 μM ([1]; HepaRG cells) [%] | percent inhibition of PKK mRNA, 1.67 μM ([1]; HepaRG cells) [%] | percent inhibition of PKK mRNA, 5.00 μM ([1]; HepaRG cells) [%] | IC50 ([1]; HepaRG cells, 0.19-5.00 μM) [nM] | also measured
1 | 546310 (antisense eG*eA*eT*eT*e[5mC]*d[5mC]*d[5mC]*dT*dT*d[5mC]*dT*dG*dA*dG*dA*e[5mC]*eT*eT*eT*eA) [compound 546310] | 78 | 67 | – | – | – | – | – | – | – | – | – | – | – | percent inhibition of PKK at 0.19 μM [1, 3]: 0%; percent inhibition of PKK at 0.56 μM [1, 3]: 36%; percent inhibition of PKK at 1.67 μM [1, 3]: 56%; percent inhibition of PKK at 5.00 μM [1, 3]: 80%; IC50 ([1]; 4 point dose response, HepaRG cells, Table 40): 1300 nM
2 | 547349 (antisense e[5mC]*eT*eT*e[5mC]*eA*dA*d[5mC]*dA*d[5mC]*dT*dG*d[5mC]*dT*dA*dA*e[5mC]*e[5mC]*eT*eT*eA) [compound 547349] | – | – | 0 | 8 | 66 | 76 | 1600 | 88 | – | – | – | – | – | –
3 | 547456 (antisense eG*e[5mC]*eG*eA*eT*dA*dT*d[5mC]*dA*dT*dG*dA*dT*dT*d[5mC]*e[5mC]*e[5mC]*eT*eT*e[5mC]) [compound 547456] | 89 | 96 | – | – | – | – | – | – | – | – | – | – | – | percent inhibition of PKK at 0.19 μM [1, 9]: 12%; percent inhibition of PKK at 0.56 μM [1, 9]: 67%; percent inhibition of PKK at 1.67 μM [1, 9]: 66%; percent inhibition of PKK at 5.00 μM [1, 9]: 80%; IC50 ([1]; Table 34, PKK mRNA, HepaRG, electroporation, ~16 h): 1000 nM
4 | 546195 (antisense eG*e[5mC]*eT*eA*eA*d[5mC]*d[5mC]*dT*dT*dA*dG*dA*d[5mC]*dA*d[5mC]*eA*eT*eT*eA*eA) [compound 546195] | – | – | – | – | – | – | – | 83 | 0 | 27 | 91 | 94 | 900 | percent inhibition of PKK at 0.19 μM [1, 10]: 34%; percent inhibition of PKK at 0.56 μM [1, 10]: 51%; percent inhibition of PKK at 1.67 μM [1, 10]: 79%; percent inhibition of PKK at 5.00 μM [1, 10]: 92%; IC50 ([1]; 4 point dose response, HepaRG cells, Table 38): 500 nM
5 | 546849 (eA*eT*e[5mC]*eA*e[5mC]*dT*dG*dT*d[5mC]*d[5mC]*dT*dA*dT*dA*dT*e[5mC]*eA*e[5mC]*eT*eG; antisense) [compound 546849] | – | – | – | – | – | – | – | – | 13 | 45 | 84 | 98 | 700 | percent inhibition of PKK at 0.19 μM [1, 11]: 23%; percent inhibition of PKK at 0.56 μM [1, 11]: 35%; percent inhibition of PKK at 1.67 μM [1, 11]: 83%; percent inhibition of PKK at 5.00 μM [1, 11]: 91%; IC50 ([1]; 4 point dose response, HepaRG cells, Table 35): 700 nM; % inhibition ([2]; human PKK mRNA in HepaRG cells, 5-10-5 gapmers, Table 14): 93%
6 | 546832 (e[5mC]*eT*e[5mC]*eT*eA*dA*d[5mC]*dA*dG*dT*dA*dT*d[5mC]*dA*d[5mC]*eT*eG*eT*eA*e[5mC]; antisense) [compound 546832] | – | – | 19 | 38 | 70 | 95 | 800 | – | 36 | 49 | 85 | 97 | 400 | % inhibition ([2]; Table 13, human PKK mRNA in HepaRG cells, 5-10-5 gapmers): 88%
